In ChEMBL document CHEMBL1201862, “PubChem BioAssay data set” (2004):
The source made the active and inactive calls.

Tests used:
Type in all cases: functional
[1] = molecular target: Melanin-concentrating hormone receptor 1 (Homo sapiens, UniProt Q99705); test: Late-stage fluorescence-based counterscreen for antagonists of the G-protein coupled receptor 7 (GPR7): cell-based dose response assay to identify antagonists of the melanin-concentrating hormone receptor 1 (MCHR1) Set 5.
[2] = molecular target: T1, Neuropeptides B/W receptor type 1 (Homo sapiens, UniProt P48145); test: human NPBW1 receptor blockade, IC50 – cell-based, fluorescence, dose response, set 5, late-stage follow-up (AID 588566)
T1 sequence (P48145 whole entry): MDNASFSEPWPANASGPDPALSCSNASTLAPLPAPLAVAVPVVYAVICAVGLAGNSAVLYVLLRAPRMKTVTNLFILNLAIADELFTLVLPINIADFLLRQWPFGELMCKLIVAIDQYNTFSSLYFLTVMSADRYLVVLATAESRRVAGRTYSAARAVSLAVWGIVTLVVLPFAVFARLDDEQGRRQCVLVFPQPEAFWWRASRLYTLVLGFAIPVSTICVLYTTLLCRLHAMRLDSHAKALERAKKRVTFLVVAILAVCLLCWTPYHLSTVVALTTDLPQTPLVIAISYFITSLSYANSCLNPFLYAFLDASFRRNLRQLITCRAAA

[3] = molecular target: Receptor-type tyrosine-protein kinase FLT3 (Homo sapiens, UniProt P36888);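 also: FLT3 was tested as one member of a kinome-wide kinase panel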
[4] = molecular target: Serine/threonine-protein kinase D3 (Homo sapiens, UniProt O94806);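 also: determined within a kinase panel screen, with PRKCN as the panel member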
[5] = molecular target: Tyrosine-protein kinase JAK2 (Homo sapiens, UniProt O60674);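 also: JAK2 tested as one member of a kinase panel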
Tyrosine-protein kinase JAK2, sequence (O60674 whole entry): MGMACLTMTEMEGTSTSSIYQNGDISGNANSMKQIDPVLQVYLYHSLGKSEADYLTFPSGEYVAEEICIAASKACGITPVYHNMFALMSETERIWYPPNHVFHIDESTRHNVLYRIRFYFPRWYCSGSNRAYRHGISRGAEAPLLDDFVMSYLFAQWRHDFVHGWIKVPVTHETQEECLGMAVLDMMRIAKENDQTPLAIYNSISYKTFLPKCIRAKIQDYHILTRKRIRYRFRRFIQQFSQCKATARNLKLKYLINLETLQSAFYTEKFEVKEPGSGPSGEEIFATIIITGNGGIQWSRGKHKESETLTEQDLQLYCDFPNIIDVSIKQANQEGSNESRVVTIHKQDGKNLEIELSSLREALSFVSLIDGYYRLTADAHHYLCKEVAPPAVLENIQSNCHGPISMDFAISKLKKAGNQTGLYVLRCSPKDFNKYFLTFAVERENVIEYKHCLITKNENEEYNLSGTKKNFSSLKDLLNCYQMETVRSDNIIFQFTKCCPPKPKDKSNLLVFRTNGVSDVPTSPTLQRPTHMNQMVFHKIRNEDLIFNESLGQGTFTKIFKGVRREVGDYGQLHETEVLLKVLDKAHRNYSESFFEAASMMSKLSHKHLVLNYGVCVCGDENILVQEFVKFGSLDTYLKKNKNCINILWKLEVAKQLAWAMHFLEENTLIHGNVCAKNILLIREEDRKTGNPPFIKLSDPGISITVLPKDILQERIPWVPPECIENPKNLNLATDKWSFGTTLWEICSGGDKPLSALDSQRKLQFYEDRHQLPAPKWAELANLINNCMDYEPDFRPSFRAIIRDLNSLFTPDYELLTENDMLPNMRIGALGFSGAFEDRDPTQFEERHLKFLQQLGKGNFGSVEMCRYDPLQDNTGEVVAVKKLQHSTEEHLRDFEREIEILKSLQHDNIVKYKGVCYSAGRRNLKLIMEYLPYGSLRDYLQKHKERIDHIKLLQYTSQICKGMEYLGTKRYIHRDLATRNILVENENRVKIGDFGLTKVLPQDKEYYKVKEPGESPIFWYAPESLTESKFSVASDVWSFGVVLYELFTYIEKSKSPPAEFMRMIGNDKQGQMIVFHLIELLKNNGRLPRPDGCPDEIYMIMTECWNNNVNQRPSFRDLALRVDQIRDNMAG

[6] = molecular target: Aurora kinase B (Homo sapiens, UniProt Q96GD4)
[7] = molecular target: Mitogen-activated protein kinase 9 (Homo sapiens, UniProt P45984);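 also: value from a kinome panel profiling assay, MAPK9 panel entry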
[8] = molecular target: Ribosomal protein S6 kinase alpha-3 (Homo sapiens, UniProt P51812);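 also: measured within a kinome-wide profiling panel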
[9] = molecular target: Serine/threonine-protein kinase PAK 4 (Homo sapiens, UniProt O96013);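 also: value obtained within a kinome profiling panel in which PAK4 was one of the panel members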
[10] = molecular target: Serine/threonine-protein kinase Chk1 (Homo sapiens, UniProt O14757);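 also: measured as one member of a kinome-wide kinase profiling panel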
[11] = molecular target: Casein kinase I isoform alpha (Homo sapiens, UniProt P48729)
[12] = molecular target: Vascular endothelial growth factor receptor 1 (Homo sapiens, UniProt P17948);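 also: measured within a kinome-wide profiling panel, FLT1 as the panel member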
[13] = molecular target: Insulin-like growth factor 1 receptor (Homo sapiens, UniProt P08069); test: Navigating the Kinome. Panel member name: IGF1R
[14] = molecular target: Calcium/calmodulin-dependent protein kinase type II subunit alpha (Homo sapiens, UniProt Q9UQM7); test: Navigating the Kinome. Panel member name: CAMK2A
[15] = molecular target: Serine/threonine-protein kinase TBK1 (Homo sapiens, UniProt Q9UHD2); test: Navigating the Kinome. Panel member name: TBK1
Serine/threonine-protein kinase TBK1, sequence (Q9UHD2 whole entry, the tested form may be a part): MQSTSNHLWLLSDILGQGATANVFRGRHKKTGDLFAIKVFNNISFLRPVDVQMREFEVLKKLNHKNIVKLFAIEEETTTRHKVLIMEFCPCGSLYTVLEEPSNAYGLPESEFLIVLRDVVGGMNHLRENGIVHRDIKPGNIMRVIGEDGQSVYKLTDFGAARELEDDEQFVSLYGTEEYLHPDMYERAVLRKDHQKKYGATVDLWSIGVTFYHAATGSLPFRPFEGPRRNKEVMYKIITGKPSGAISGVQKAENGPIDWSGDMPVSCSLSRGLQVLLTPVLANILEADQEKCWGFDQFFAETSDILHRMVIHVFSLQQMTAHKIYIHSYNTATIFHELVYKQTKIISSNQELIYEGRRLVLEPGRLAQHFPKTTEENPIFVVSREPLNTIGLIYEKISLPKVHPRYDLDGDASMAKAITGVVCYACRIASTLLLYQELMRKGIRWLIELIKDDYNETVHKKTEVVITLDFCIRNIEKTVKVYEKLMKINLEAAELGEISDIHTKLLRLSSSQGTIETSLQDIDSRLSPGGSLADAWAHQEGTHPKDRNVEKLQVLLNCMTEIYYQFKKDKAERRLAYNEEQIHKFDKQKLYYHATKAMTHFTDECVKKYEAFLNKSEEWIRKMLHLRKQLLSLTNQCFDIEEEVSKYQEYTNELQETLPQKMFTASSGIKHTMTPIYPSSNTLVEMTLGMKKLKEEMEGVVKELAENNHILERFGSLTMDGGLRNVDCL

[16] = molecular target: LIM domain kinase 1 (Homo sapiens, UniProt P53667); test: Navigating the Kinome. Panel member name: LIMK1
[17] = molecular target: Inhibitor of nuclear factor kappa-B kinase subunit epsilon (Homo sapiens, UniProt Q14164); test: Navigating the Kinome. Panel member name: IKBKE
[18] = molecular target: Glycogen synthase kinase-3 alpha (Homo sapiens, UniProt P49840);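 also: GSK3A result taken from a broad kinome-wide kinase panel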
[19] = molecular target: Activated CDC42 kinase 1 (Homo sapiens, UniProt Q07912); test: Navigating the Kinome. Panel member name: ACK1
[20] = molecular target: Proto-oncogene tyrosine-protein kinase receptor Ret (Homo sapiens, UniProt P07949);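 also: measured within a kinome-wide profiling panel, RET as the panel member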
[21] = molecular target: Cyclin-dependent kinase 5 (Homo sapiens, UniProt Q00535);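 also: CDK5 measured as one member of a kinase profiling panel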
[22] = molecular target: Mitogen-activated protein kinase kinase kinase kinase 4 (Homo sapiens, UniProt O95819)
[23] = molecular target: Tyrosine-protein kinase JAK3 (Homo sapiens, UniProt P52333)
[24] = molecular target: Macrophage-stimulating protein receptor (Homo sapiens, UniProt Q04912); test: Navigating the Kinome. Panel member name: MST1R
[25] = molecular target: Vascular endothelial growth factor receptor 2 (Homo sapiens, UniProt P35968)
[26] = molecular target: Dual specificity mitogen-activated protein kinase kinase 2 (Homo sapiens, UniProt P36507); test: Navigating the Kinome. Panel member name: MAP2K2
Dual specificity mitogen-activated protein kinase kinase 2, sequence (P36507 whole entry): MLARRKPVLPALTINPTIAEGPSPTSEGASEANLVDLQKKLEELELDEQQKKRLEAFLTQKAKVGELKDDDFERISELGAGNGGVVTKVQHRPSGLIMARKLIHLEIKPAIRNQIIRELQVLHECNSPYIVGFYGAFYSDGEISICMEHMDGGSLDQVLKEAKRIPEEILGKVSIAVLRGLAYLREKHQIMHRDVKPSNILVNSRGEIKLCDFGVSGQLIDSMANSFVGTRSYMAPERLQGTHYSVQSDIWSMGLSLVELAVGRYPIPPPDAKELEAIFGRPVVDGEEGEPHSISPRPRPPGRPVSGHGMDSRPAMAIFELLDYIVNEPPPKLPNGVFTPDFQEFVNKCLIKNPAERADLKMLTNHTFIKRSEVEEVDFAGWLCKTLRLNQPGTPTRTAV

[27] = molecular target: Leucine-rich repeat serine/threonine-protein kinase 2 (Homo sapiens, UniProt Q5S007);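 also: value from a broad kinome-wide panel profiling study in which LRRK2 was one of the kinases tested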
[28] = molecular target: Mitogen-activated protein kinase 14 (Homo sapiens, UniProt Q16539);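 also: part of a kinome-wide panel, MAPK14 entry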
[29] = molecular target: Tyrosine-protein kinase ABL1 (Homo sapiens, UniProt P00519)
Tyrosine-protein kinase ABL1, sequence (P00519 whole entry): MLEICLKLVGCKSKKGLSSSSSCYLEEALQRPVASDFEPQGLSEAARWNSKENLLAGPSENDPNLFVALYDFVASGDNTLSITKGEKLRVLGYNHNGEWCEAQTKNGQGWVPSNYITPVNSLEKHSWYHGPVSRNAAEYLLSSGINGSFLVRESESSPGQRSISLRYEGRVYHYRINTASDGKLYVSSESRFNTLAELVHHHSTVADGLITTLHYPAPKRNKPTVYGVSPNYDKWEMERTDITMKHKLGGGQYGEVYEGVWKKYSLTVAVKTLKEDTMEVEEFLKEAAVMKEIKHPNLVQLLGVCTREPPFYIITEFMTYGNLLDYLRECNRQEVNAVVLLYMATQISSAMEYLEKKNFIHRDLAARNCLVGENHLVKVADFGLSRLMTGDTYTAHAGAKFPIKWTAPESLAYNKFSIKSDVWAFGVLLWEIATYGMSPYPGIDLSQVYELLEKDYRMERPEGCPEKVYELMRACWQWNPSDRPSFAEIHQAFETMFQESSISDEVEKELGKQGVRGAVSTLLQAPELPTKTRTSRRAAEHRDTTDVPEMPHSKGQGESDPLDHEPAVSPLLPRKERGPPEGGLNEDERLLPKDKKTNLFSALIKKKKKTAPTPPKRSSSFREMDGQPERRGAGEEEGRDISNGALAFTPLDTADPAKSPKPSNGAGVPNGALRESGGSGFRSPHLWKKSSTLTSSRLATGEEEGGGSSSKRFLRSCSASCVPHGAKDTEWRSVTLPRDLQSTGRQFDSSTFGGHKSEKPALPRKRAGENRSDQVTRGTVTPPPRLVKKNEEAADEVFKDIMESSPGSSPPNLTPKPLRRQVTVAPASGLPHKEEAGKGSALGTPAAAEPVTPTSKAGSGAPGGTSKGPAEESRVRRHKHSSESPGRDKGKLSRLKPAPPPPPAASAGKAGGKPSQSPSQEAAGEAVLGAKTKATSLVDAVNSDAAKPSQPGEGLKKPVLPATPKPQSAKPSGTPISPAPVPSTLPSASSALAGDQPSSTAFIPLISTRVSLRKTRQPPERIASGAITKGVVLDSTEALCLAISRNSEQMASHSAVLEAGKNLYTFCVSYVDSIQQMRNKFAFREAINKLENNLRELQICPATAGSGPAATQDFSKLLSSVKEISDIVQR

[30] = molecular target: Macrophage colony-stimulating factor 1 receptor (Homo sapiens, UniProt P07333);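 also: value comes from the Navigating the Kinome screening panel, CSF1R member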
[31] = molecular target: Activin receptor type-1 (Homo sapiens, UniProt Q04771); test: Navigating the Kinome. Panel member name: ACVR1
[32] = molecular target: Cyclin-dependent kinase 7 (Homo sapiens, UniProt P50613);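 also: value comes from a kinome-wide kinase profiling panel in which CDK7 is one member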
Cyclin-dependent kinase 7, sequence (P50613 whole entry): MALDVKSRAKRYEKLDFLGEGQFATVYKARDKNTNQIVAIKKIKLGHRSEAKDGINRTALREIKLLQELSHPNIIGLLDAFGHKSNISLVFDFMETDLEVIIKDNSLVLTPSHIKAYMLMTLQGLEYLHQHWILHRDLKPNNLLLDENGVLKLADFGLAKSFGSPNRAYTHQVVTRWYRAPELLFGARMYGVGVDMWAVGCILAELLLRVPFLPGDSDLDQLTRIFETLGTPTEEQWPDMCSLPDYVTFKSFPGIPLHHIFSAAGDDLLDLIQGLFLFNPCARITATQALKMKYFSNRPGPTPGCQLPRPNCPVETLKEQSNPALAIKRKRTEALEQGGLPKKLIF

[33] = molecular target: 5'-AMP-activated protein kinase catalytic subunit alpha-1 (Homo sapiens, UniProt Q13131)
[34] = molecular target: Dual specificity tyrosine-phosphorylation-regulated kinase 1A (Homo sapiens, UniProt Q13627);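 also: measured against DYRK1A as one member of a broad kinome profiling panel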
[35] = molecular target: Serine/threonine-protein kinase TAO1 (Homo sapiens, UniProt Q7L7X3)
[36] = molecular target: BDNF/NT-3 growth factors receptor (Homo sapiens, UniProt Q16620);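 also: NTRK2 measured as one member of a broad kinome-wide kinase profiling panel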
[37] = molecular target: G protein-coupled receptor kinase 5 (Homo sapiens, UniProt P34947); test: Navigating the Kinome. Panel member name: GPRK5
[38] = molecular target: Glycogen synthase kinase-3 beta (Homo sapiens, UniProt P49841);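 also: value comes from a broad kinome profiling panel, with GSK3B as the panel member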
[39] = molecular target: Fibroblast growth factor receptor 1 (Homo sapiens, UniProt P11362)
[40] = molecular target: Serine/threonine-protein kinase pim-1 (Homo sapiens, UniProt P11309)
[41] = molecular target: ALK tyrosine kinase receptor (Homo sapiens, UniProt Q9UM73);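 also: ALK tested as one member of a kinase panel screen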
[42] = molecular target: Death-associated protein kinase 3 (Homo sapiens, UniProt O43293);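 also: measured as one member of a kinome-wide profiling panel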
Death-associated protein kinase 3, sequence (O43293 whole entry): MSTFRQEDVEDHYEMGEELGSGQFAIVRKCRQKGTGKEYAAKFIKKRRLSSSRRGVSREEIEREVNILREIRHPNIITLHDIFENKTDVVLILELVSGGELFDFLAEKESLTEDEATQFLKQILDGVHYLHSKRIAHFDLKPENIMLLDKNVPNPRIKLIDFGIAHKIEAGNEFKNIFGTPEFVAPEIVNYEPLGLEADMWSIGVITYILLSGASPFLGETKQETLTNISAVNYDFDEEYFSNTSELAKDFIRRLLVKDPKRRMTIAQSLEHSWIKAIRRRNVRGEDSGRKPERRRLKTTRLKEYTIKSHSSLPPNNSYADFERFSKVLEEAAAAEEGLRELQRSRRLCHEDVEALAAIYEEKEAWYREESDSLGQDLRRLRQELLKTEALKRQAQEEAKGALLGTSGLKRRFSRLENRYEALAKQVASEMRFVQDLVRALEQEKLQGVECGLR

[43] = molecular target: Platelet-derived growth factor receptor alpha (Homo sapiens, UniProt P16234); test: Navigating the Kinome. Panel member name: PDGFRA
[44] = molecular target: Protein kinase C theta type (Homo sapiens, UniProt Q04759); test: Navigating the Kinome. Panel member name: PRKCQ
[45] = molecular target: Cyclin-dependent kinase 8 (Homo sapiens, UniProt P49336); test: Navigating the Kinome. Panel member name: CDK8
[46] = molecular target: Dual specificity mitogen-activated protein kinase kinase 1 (Homo sapiens, UniProt Q02750); test: Navigating the Kinome. Panel member name: MAP2K1
[47] = molecular target: Rho-associated protein kinase 1 (Homo sapiens, UniProt Q13464);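 also: measured within a broad kinome-wide panel profiling many kinases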
[48] = molecular target: Dual specificity tyrosine-phosphorylation-regulated kinase 1B (Homo sapiens, UniProt Q9Y463); test: Navigating the Kinome. Panel member name: DYRK1B
[49] = molecular target: cAMP-dependent protein kinase catalytic subunit alpha (Homo sapiens, UniProt P17612)
[50] = molecular target: Aurora kinase A (Homo sapiens, UniProt O14965);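 also: value from the Navigating the Kinome kinase panel profiling, panel entry STK6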
[51] = molecular target: cAMP-dependent protein kinase catalytic subunit PRKX (Homo sapiens, UniProt P51817)
cAMP-dependent protein kinase catalytic subunit PRKX, sequence (P51817 whole entry): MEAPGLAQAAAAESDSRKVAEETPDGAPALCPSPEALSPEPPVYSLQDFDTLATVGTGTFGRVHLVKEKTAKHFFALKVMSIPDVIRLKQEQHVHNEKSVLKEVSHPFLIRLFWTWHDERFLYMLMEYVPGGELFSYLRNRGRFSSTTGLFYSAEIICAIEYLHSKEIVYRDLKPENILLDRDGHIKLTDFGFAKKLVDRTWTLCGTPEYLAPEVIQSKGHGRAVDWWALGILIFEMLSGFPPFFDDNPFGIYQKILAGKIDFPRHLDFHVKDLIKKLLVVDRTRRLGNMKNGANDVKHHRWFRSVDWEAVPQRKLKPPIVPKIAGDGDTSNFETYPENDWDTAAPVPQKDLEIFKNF

[52] = molecular target: Leukocyte tyrosine kinase receptor (Homo sapiens, UniProt P29376); test: Navigating the Kinome. Panel member name: LTK
[53] = molecular target: Tyrosine-protein kinase receptor TYRO3 (Homo sapiens, UniProt Q06418);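 also: TYRO3 value obtained as one member of a kinome-wide profiling panel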
[54] = molecular target: Cyclin-dependent kinase 9 (Homo sapiens, UniProt P50750);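 also: value from the CDK9 entry of a kinome-spanning kinase panel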
[55] = molecular target: Mitogen-activated protein kinase 8 (Homo sapiens, UniProt P45983);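 also: value comes from one member of a kinome-wide kinase profiling panel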
Mitogen-activated protein kinase 8, sequence (P45983 whole entry): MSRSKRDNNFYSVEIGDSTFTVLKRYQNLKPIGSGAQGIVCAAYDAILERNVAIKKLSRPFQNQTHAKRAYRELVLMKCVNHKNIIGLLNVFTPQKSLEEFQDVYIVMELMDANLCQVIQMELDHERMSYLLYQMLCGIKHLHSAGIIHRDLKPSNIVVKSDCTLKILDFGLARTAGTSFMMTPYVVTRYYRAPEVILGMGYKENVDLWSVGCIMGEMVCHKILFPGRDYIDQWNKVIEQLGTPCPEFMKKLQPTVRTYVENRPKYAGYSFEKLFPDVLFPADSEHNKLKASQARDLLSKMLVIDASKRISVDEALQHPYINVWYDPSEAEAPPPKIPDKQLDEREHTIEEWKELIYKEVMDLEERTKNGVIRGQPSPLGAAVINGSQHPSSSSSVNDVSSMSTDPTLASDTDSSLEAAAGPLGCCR

[56] = molecular target: Hepatocyte growth factor receptor (Homo sapiens, UniProt P08581);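 also: kinase panel profiling across the kinome, with MET as the panel member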
[57] = molecular target: Tyrosine-protein kinase Fyn (Homo sapiens, UniProt P06241)
[58] = molecular target: Dual specificity protein kinase CLK4 (Homo sapiens, UniProt Q9HAZ1)
[59] = molecular target: Dual specificity protein kinase CLK2 (Homo sapiens, UniProt P49760)
[60] = molecular target: Serine/threonine-protein kinase Nek2 (Homo sapiens, UniProt P51955)
[61] = molecular target: Mitogen-activated protein kinase kinase kinase kinase 2 (Homo sapiens, UniProt Q12851);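 also: measured as one member of a kinome-wide kinase panel, with MAP4K2 as the panel entry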
[62] = molecular target: Multidrug resistance protein CDR2 (Candida albicans (strain SC5314 / ATCC MYA-2876) (Yeast), UniProt P78595); test: inhibition of Nile Red efflux via Candida CDR2 – S. cerevisiae AD1-8u, singleplex, Cherry Pick1 hits, dose response (AID 588604)

With `COc1ccc([S+]([O-])c2c(Cl)cnn(Cc3cccc4ccccc34)c2=O)cc1` (configuration not stated) the IC50 [1] was 5.86 µM (active) and the IC50 [2] was 6.18 µM (active).

`COc1ccccc1CNC(=N)Nc1nccc(-c2cccs2)n1` was tested, and the Ki [3] was > 3.16 µM (inactive), the Ki [4] was > 3.98 µM (inactive) and the Ki [5] was > 2.51 µM (inactive). For the same compound, the Ki [6] was > 3.98 µM (inactive), the Ki [7] was > 3.98 µM (inactive) and the Ki [8] was > 3.98 µM (inactive). The Ki [9] was > 5.01 µM (inactive), the Ki [10] was > 3.16 µM (inactive) and the Ki [11] was > 3.98 µM (inactive). For the same compound, the Ki [12] was > 3.98 µM (inactive), the Ki [13] was > 2.51 µM (inactive) and the Ki [14] was > 3.98 µM (inactive). The Ki [15] was > 3.16 µM (inactive), the Ki [16] was > 3.16 µM (inactive) and the Ki [17] was > 3.16 µM (inactive). For the same compound, the Ki [18] was 1.26 µM (active), the Ki [19] was > 3.98 µM (inactive) and the Ki [20] was > 3.16 µM (inactive). For the same compound, the Ki [21] was 0.126 µM (active), the Ki [22] was > 5.01 µM (inactive) and the Ki [23] was > 5.01 µM (inactive). The Ki [24] was > 3.98 µM (inactive), the Ki [25] was > 2.51 µM (inactive) and the Ki [26] was > 3.98 µM (inactive). The Ki [27] was > 2.51 µM (inactive), the Ki [28] was > 3.98 µM (inactive) and the Ki [29] was > 2.51 µM (inactive). For the same compound, the Ki [30] was > 2.51 µM (inactive), the Ki [31] was > 3.98 µM (inactive) and the Ki [32] was > 3.98 µM (inactive). The Ki [33] was > 3.16 µM (inactive), the Ki [34] was 1.58 µM (active) and the Ki [35] was 5.01 µM (active). For the same compound, the Ki [36] was > 3.98 µM (inactive), the Ki [37] was > 3.98 µM (inactive) and the Ki [38] was 2.51 µM (active). For the same compound, the Ki [39] was > 3.98 µM (inactive), the Ki [40] was > 6.31 µM (inactive) and the Ki [41] was > 6.31 µM (inactive). For the same compound, the Ki [42] was > 5.01 µM (inactive), the Ki [43] was > 2.51 µM (inactive) and the Ki [44] was > 2.51 µM (inactive). For the same compound, the Ki [45] was > 3.98 µM (inactive), the Ki [46] was > 3.16 µM (inactive) and the Ki [47] was > 3.98 µM (inactive). For the same compound, the Ki [48] was 0.398 µM (active), the Ki [49] was > 1.26 µM (inactive) and the Ki [50] was > 1.58 µM (inactive). For the same compound, the Ki [51] was > 3.16 µM (inactive), the Ki [52] was > 2.51 µM (inactive) and the Ki [53] was > 3.16 µM (inactive). The Ki [54] was 0.1 µM (active), the Ki [55] was > 5.01 µM (inactive) and the Ki [56] was > 2.51 µM (inactive). The Ki [57] was > 6.31 µM (inactive), the Ki [58] was 0.316 µM (active) and the Ki [59] was 3.16 µM (active). For the same compound, the Ki [60] was > 3.16 µM (inactive) and the Ki [61] was > 2.51 µM (inactive).

`O=C(/C=C/c1ccccc1[N+](=O)[O-])NCCc1ccc(F)cc1` was tested, and the EC50 [62] was 25.8 µM (active).
